Values joined by “and” are separate entries in the source; they are usually repeats but may differ in a detail not shown here. Equal entries are not always repeated. Where two headings read alike, the source gives them in different places.
Tests used:
[1] = test system: cells (nuclei count); conditions: for Toxicity Data: Average, Mean: average of Exp 1-3 (SMW475, SMW477, SMW478), n 9; for Relative cell count to DMSO controls, Average 1 μM / Relative cell count to DMSO controls, Average 5 μM / Relative cell count to DMSO controls, Average 10 μM / Relative cell count to DMSO controls, Average 25 μM / Relative cell count to DMSO controls, Average 50 μM: toxicity data, 100=DMSO control; for Relative cell count to DMSO controls, Average (for correlation analysis): average value over the 5 tested concentrations (1 to 50 uM)
[2] = test system: SARS2; type: cell-based, SARS-CoV-2; conditions: for Infection Data: Percentage Infection Relative to Appropriate DMSO Control: avg background subtraction, replicate wells; for Infection Data: Average, Mean: average of Exp 1-3 (SMW475, SMW477, SMW478), n 9; for Percentage Inhibition Average 1 μM / Screening data (Relative infection to DMSO controls) Average 1 μM: SARS2, 1 μM; for Screening data (Relative infection to DMSO controls) Average 1 μM / Screening data (Relative infection to DMSO controls) Average 5 μM / Screening data (Relative infection to DMSO controls) Average 10 μM / Screening data (Relative infection to DMSO controls) Average 25 μM / Screening data (Relative infection to DMSO controls) Average 50 μM / Average (relative infection to DMSO over the 5 tested concentrations): 100=DMSO control; for Percentage Inhibition Average 5 μM / Screening data (Relative infection to DMSO controls) Average 5 μM: SARS2, 5 μM; for Percentage Inhibition Average 10 μM / Screening data (Relative infection to DMSO controls) Average 10 μM: SARS2, 10 μM; for Percentage Inhibition Average 25 μM / Screening data (Relative infection to DMSO controls) Average 25 μM: SARS2, 25 μM; for Percentage Inhibition Average 50 μM / Screening data (Relative infection to DMSO controls) Average 50 μM: SARS2, 50 μM; for Average (relative infection to DMSO over the 5 tested concentrations): SARS2, average over 1 to 50 uM; for Percentage Infection Relative to Appropriate DMSO Control with Avg Background Subtraction: single well

Question: What does the source list for `Cc1cc(CN(CCN(C)C)Cc2ccncc2)sc1Br` [SILCS14]?
Answer: Toxicity Data: Average, Mean ([1]; 1 uM): 105.49%; Relative cell count to DMSO controls, Average 1 μM [1]: 105.49; Toxicity Data: Average, Mean ([1]; 5 uM): 103.93%; Relative cell count to DMSO controls, Average 5 μM [1]: 103.93; Toxicity Data: Average, Mean ([1]; 10 uM): 108.29%; Relative cell count to DMSO controls, Average 10 μM [1]: 108.29; Toxicity Data: Average, Mean ([1]; 25 uM): 139.75%; Relative cell count to DMSO controls, Average 25 μM [1]: 139.75; Toxicity Data: Average, Mean ([1]; 50 uM): 16.80%; Relative cell count to DMSO controls, Average 50 μM [1]: 16.8; Relative cell count to DMSO controls, Average (for correlation analysis) [1]: 94.85; Infection Data: Percentage Infection Relative to Appropriate DMSO Control ([2]; 1 uM, Exp 1 (SMW475)): 112.00% and 92.09% and 122.87%; Infection Data: Percentage Infection Relative to Appropriate DMSO Control ([2]; 1 uM, Exp 2 (SMW477)): 91.97% and 93.96% and 99.35%; Infection Data: Percentage Infection Relative to Appropriate DMSO Control ([2]; 1 uM, Exp 3 (SMW478)): 112.26% and 106.71% and 118.52%; Infection Data: Average, Mean ([2]; 1 uM): 105.53%; Infection Data: Percentage Infection Relative to Appropriate DMSO Control ([2]; 5 uM, Exp 1 (SMW475)): 112.88% and 98.55% and 115.50%; Infection Data: Percentage Infection Relative to Appropriate DMSO Control ([2]; 5 uM, Exp 2 (SMW477)): 105.78% and 98.21% and 86.55%; Infection Data: Percentage Infection Relative to Appropriate DMSO Control ([2]; 5 uM, Exp 3 (SMW478)): 109.15% and 113.38% and 106.22%; Infection Data: Average, Mean ([2]; 5 uM): 105.13%; Infection Data: Percentage Infection Relative to Appropriate DMSO Control ([2]; 10 uM, Exp 1 (SMW475)): 92.53% and 120.55% and 101.62%; Infection Data: Percentage Infection Relative to Appropriate DMSO Control ([2]; 10 uM, Exp 2 (SMW477)): 84.89% and 81.65% and 69.99%; Infection Data: Percentage Infection Relative to Appropriate DMSO Control ([2]; 10 uM, Exp 3 (SMW478)): 92.27% and 101.81% and 99.27%; Infection Data: Average, Mean ([2]; 10 uM): 93.84%; Infection Data: Percentage Infection Relative to Appropriate DMSO Control ([2]; 25 uM, Exp 1 (SMW475)): 11.84% and 13.81% and 11.60%; Infection Data: Percentage Infection Relative to Appropriate DMSO Control ([2]; 25 uM, Exp 2 (SMW477)): 19.70% and 19.93% and 22.53%; Infection Data: Percentage Infection Relative to Appropriate DMSO Control ([2]; 25 uM, Exp 3 (SMW478)): 9.11% and 11.10% and 12.21%; Infection Data: Average, Mean ([2]; 25 uM): 14.65%; Infection Data: Percentage Infection Relative to Appropriate DMSO Control ([2]; 50 uM, Exp 1 (SMW475)): 2.09% and 3.52% and 1.22%; Infection Data: Percentage Infection Relative to Appropriate DMSO Control ([2]; 50 uM, Exp 2 (SMW477)): 1.91% and −0.25% and −0.24%; Infection Data: Percentage Infection Relative to Appropriate DMSO Control ([2]; 50 uM, Exp 3 (SMW478)): 3.06% and 0.62% and 3.25%; Infection Data: Average, Mean ([2]; 50 uM): 1.69%; Percentage Inhibition Average 1 μM [2]: −5.53%; Screening data (Relative infection to DMSO controls) Average 1 μM [2]: 105.53; Percentage Inhibition Average 5 μM [2]: −5.13%; Screening data (Relative infection to DMSO controls) Average 5 μM [2]: 105.13; Percentage Inhibition Average 10 μM [2]: 6.16%; Screening data (Relative infection to DMSO controls) Average 10 μM [2]: 93.84; Percentage Inhibition Average 25 μM [2]: 85.35%; Screening data (Relative infection to DMSO controls) Average 25 μM [2]: 14.65; Percentage Inhibition Average 50 μM [2]: 98.31%; Screening data (Relative infection to DMSO controls) Average 50 μM [2]: 1.69; Average (relative infection to DMSO over the 5 tested concentrations) [2]: 64.17

Question: How did the “Relative cell count to DMSO controls, Average 1 μM” value [1] turn out when `OC(COc1c(CNCCc2ccccc2F)cccc1N1CCNCC1)CN1CCCC1` (stereo not shown) [SILCS22] was run?
Answer: 126.41

Question: What about the “Relative cell count to DMSO controls, Average 5 μM” value [1] of the same compound?
Answer: 125.64

Question: And the “Relative cell count to DMSO controls, Average 10 μM” value [1]?
Answer: 137.18

Question: And the “Relative cell count to DMSO controls, Average 25 μM” value [1]?
Answer: 131.85

Question: And the “Relative cell count to DMSO controls, Average 50 μM” value [1]?
Answer: 68.81

Question: And the “Toxicity Data, Average, Mean” value ([1]; Average of Exp 1-3, n 9, 1 uM)?
Answer: 126.41%

Question: And the “Toxicity Data, Average, Mean” value ([1]; Average of Exp 1-3, n 9, 5 uM)?
Answer: 125.64%

Question: And the “Toxicity Data, Average, Mean” value ([1]; Average of Exp 1-3, n 9, 10 uM)?
Answer: 137.18%

Question: What about the “Toxicity Data, Average, Mean” value ([1]; Average of Exp 1-3, n 9, 25 uM) of the same compound?
Answer: 131.85%

Question: What about the “Toxicity Data, Average, Mean” value ([1]; Average of Exp 1-3, n 9, 50 uM) of the same compound?
Answer: 68.81%

Question: And the “Relative cell count to DMSO controls, Average (for correlation analysis)” value [1]?
Answer: 117.98

Question: And the “SARS2 antiviral activity” value [2]?
Answer: activity approaching that of UMB18

Question: What about the “Infection Data, Average, Mean” value ([2]; Average of Exp 1-3, n 9, 1 uM) of the same compound?
Answer: 72.38%

Question: What about the “Infection Data, Average, Mean” value ([2]; Average of Exp 1-3, n 9, 5 uM) of the same compound?
Answer: 70.31%

Question: And the “Infection Data, Average, Mean” value ([2]; Average of Exp 1-3, n 9, 10 uM)?
Answer: 53.13%

Question: And the “Infection Data, Average, Mean” value ([2]; Average of Exp 1-3, n 9, 25 uM)?
Answer: 6.37%

Question: What about the “Infection Data, Average, Mean” value ([2]; Average of Exp 1-3, n 9, 50 uM) of the same compound?
Answer: 2.68%

Question: And the “Percentage Infection Relative to Appropriate DMSO Control with Avg Background Subtraction” value ([2]; Exp 1 (SMW475), 1 uM)?
Answer: 68.46% and 64.64% and 77.37%

Question: What about the “Percentage Infection Relative to Appropriate DMSO Control with Avg Background Subtraction” value ([2]; Exp 1 (SMW475), 5 uM) of the same compound?
Answer: 32.75% and 46.98% and 35.47%

Question: And the “Percentage Infection Relative to Appropriate DMSO Control with Avg Background Subtraction” value ([2]; Exp 1 (SMW475), 10 uM)?
Answer: 15.62% and 28.80% and 29.55%

Question: And the “Percentage Infection Relative to Appropriate DMSO Control with Avg Background Subtraction” value ([2]; Exp 1 (SMW475), 25 uM)?
Answer: 2.49% and 6.38% and 4.75%

Question: And the “Percentage Infection Relative to Appropriate DMSO Control with Avg Background Subtraction” value ([2]; Exp 1 (SMW475), 50 uM)?
Answer: 0.02% and 3.92% and 4.65%

Question: What about the “Percentage Infection Relative to Appropriate DMSO Control with Avg Background Subtraction” value ([2]; Exp 2 (SMW477), 1 uM) of the same compound?
Answer: 76.88% and 75.65% and 76.95%

Question: What about the “Percentage Infection Relative to Appropriate DMSO Control with Avg Background Subtraction” value ([2]; Exp 2 (SMW477), 5 uM) of the same compound?
Answer: 93.66% and 92.49% and 88.62%

Question: And the “Percentage Infection Relative to Appropriate DMSO Control with Avg Background Subtraction” value ([2]; Exp 2 (SMW477), 10 uM)?
Answer: 68.54% and 46.53% and 47.36%

Question: What about the “Percentage Infection Relative to Appropriate DMSO Control with Avg Background Subtraction” value ([2]; Exp 2 (SMW477), 25 uM) of the same compound?
Answer: 5.13% and 4.50% and 4.04%

Question: What about the “Percentage Infection Relative to Appropriate DMSO Control with Avg Background Subtraction” value ([2]; Exp 2 (SMW477), 50 uM) of the same compound?
Answer: 3.65% and 0.99% and 1.90%

Question: What about the “Percentage Infection Relative to Appropriate DMSO Control with Avg Background Subtraction” value ([2]; Exp 3 (SMW478), 1 uM) of the same compound?
Answer: 62.06% and 83.81% and 65.64%

Question: What about the “Percentage Infection Relative to Appropriate DMSO Control with Avg Background Subtraction” value ([2]; Exp 3 (SMW478), 5 uM) of the same compound?
Answer: 69.69% and 88.68% and 84.47%

Question: And the “Percentage Infection Relative to Appropriate DMSO Control with Avg Background Subtraction” value ([2]; Exp 3 (SMW478), 10 uM)?
Answer: 92.75% and 69.87% and 79.13%

Question: What about the “Percentage Infection Relative to Appropriate DMSO Control with Avg Background Subtraction” value ([2]; Exp 3 (SMW478), 25 uM) of the same compound?
Answer: 8.14% and 10.91% and 10.99%

Question: And the “Percentage Infection Relative to Appropriate DMSO Control with Avg Background Subtraction” value ([2]; Exp 3 (SMW478), 50 uM)?
Answer: 1.60% and 3.82% and 3.54%

Question: And the “Percentage Inhibition Average 1 μM” value [2]?
Answer: 27.62%

Question: And the “Screening data (Relative infection to DMSO controls) Average 1 μM” value [2]?
Answer: 72.38

Question: What about the “Percentage Inhibition Average 5 μM” value [2] of the same compound?
Answer: 29.69%

Question: And the “Screening data (Relative infection to DMSO controls) Average 5 μM” value [2]?
Answer: 70.31

Question: What about the “Percentage Inhibition Average 10 μM” value [2] of the same compound?
Answer: 46.87%

Question: And the “Screening data (Relative infection to DMSO controls) Average 10 μM” value [2]?
Answer: 53.13

Question: And the “Percentage Inhibition Average 25 μM” value [2]?
Answer: 93.63%

Question: What about the “Screening data (Relative infection to DMSO controls) Average 25 μM” value [2] of the same compound?
Answer: 6.37

Question: What about the “Percentage Inhibition Average 50 μM” value [2] of the same compound?
Answer: 97.32%

Question: And the “Screening data (Relative infection to DMSO controls) Average 50 μM” value [2]?
Answer: 2.68

Question: What about the “Average (relative infection to DMSO over the 5 tested concentrations)” value [2] of the same compound?
Answer: 40.97

— patent publication US20240132484A1, “BROAD SPECTRUM ANTIVIRAL COMPOUNDS TARGETING THE SKI COMPLEX” (priority 2020, published 2024)
